Source: US12551536B2, “Semaglutide in medical therapy” (Novo Nordisk A/S, priority 2017, dated 2026)

How the values were obtained:
[1] = 26-week clinical trial in adult patients with T2D: gastrointestinal adverse events incl. nausea; assay type: in vivo, human; conditions: on-treatment
Procedure: A 26-week, randomized, double-blind clinical trial was carried out with adult patients with T2D, HbA1c 7.0-10.0% (53-86 mmol/mol), and body mass index 24.0-40.0 kg/m^2 who were treated with diet and exercise±metformin. […] The primary endpoint was change in HbA1c from baseline to week 26. Key exclusion criteria were a history of chronic or idiopathic acute pancreatitis and moderate-to-severe renal impairment (estimated glomerular filtration rate <60 mL/min/1.73 m^2).
Trial drug administration: Following a 2-week screening period, patients received trial medication for 26 weeks, followed by a 7-week follow-up period. […] The trial was double blinded within (but not between) each dose level of semaglutide, liraglutide and placebo, as treatment was volume matched.

[2] = 52-week clinical trial in obese subjects without diabetes mellitus: gastrointestinal adverse events; assay type: in vivo, human; conditions: Lira 3.0 mg once daily s.c., on-treatment
Procedure: This trial was designed as a 52-week, randomised, double-blind, placebo-controlled, sixteen-armed, parallel group, multi-centre, multinational trial comparing once-daily subcutaneous administration of semaglutide in five different doses (ranging from 0.05 mg/day to 0.4 mg/day) with placebo in obese subjects without diabetes mellitus. […] The trial was double-blinded between active and placebo treatment. To ensure a sufficiently large sample of men, no more than 70% of the trial population was allowed to be women and the randomisation was stratified according to sex. Subjects were randomised in a balanced manner (6:1 active:placebo).
The primary endpoint was relative change from baseline in body weight (%) at 52 weeks. Key secondary endpoints included proportion of subjects with weight loss of ≥5% or ≥10% of baseline body weight at 52 weeks as well as change in body weight from baseline to 52 weeks. Supportive secondary safety endpoints also included gastrointestinal (GI) adverse events (i.e. nausea, vomiting, diarrhoea and constipation). During each site visit the individual subject was asked via open questions if they had experienced any medical problems since the last visit. All medical problems either observed by the site staff or the subject was reported as an adverse event and evaluated for severity and causality by the investigator. For this trial the subjects had site visits every 2 weeks for the first 20 weeks of the trial and afterwards site visits was performed every 4 weeks.
Subjects in all treatment arms including placebo received nutritional counselling and a calorie-reduced diet by a dietician or equivalent qualified delegate as well as physical activity counselling by a qualified person on a monthly basis beginning at the randomisation visit. The trial population consisted of a total of 957 subjects were randomised. A total of 777 subjects (81.2%) completed 52 weeks of treatment; 180 (18.8%) discontinued treatment prematurely with no obvious dose-dependent trend. Key inclusion criteria for this trial were: Male or female, age ≥18 years at the time of signing inform consent; body mass index (BMI)≥30.0 kg/m2 at the screening visit; and at least one unsuccessful weight loss attempt per investigator judgement. Key exclusion criteria for this trial were: A HbA1c≥6.5% at screening or diagnosed with type 1 or type 2 diabetes mellitus; Treatment with glucose lowering agent(s) within 90 days before screening; Screening calcitonin ≥50 ng/L (pg/mL); Personal or family history of medullary thyroid carcinoma or multiple endocrine neoplasia syndrome type 2; History of pancreatitis (acute or chronic); Obesity induced by endocrine disorders (e.g. Cushing Syndrome); Treatment with any medication within 90 days before screening that based on investigator's judgement may cause significant weight change; Previous surgical treatment for obesity (liposuction and/or abdominoplasty performed >1 year before screening is allowed); History of major depressive disorder within 2 years before randomisation; Any lifetime history of a suicidal attempt; and Female who is pregnant, breast-feeding or intends to become pregnant or is of childbearing potential and not using an adequate contraceptive method (adequate contraceptive measures as required by local regulation or practice).

[3] = Lira 0.3 mg once daily s.c., N 64
[4] = Lira 0.6 mg once daily s.c., N 64
[5] = Lira 1.2 mg once daily s.c., N 64
[6] = Lira 1.8 mg once daily s.c., N 65

CCCCCCCCCCCCCCCC(=O)N[C@@H](CCC(=O)NCCCC[C@H](NC(=O)[C@H](C)NC(=O)[C@H](C)NC(=O)[C@H](CCC(N)=O)NC(=O)CNC(=O)[C@H](CCC(=O)O)NC(=O)[C@H](CC(C)C)NC(=O)[C@H](Cc1ccc(O)cc1)NC(=O)[C@H](CO)NC(=O)[C@H](CO)NC(=O)[C@@H](NC(=O)[C@H](CC(=O)O)NC(=O)[C@H](CO)NC(=O)[C@@H](NC(=O)[C@H](Cc1ccccc1)NC(=O)[C@@H](NC(=O)CNC(=O)[C@H](CCC(=O)O)NC(=O)[C@H](C)NC(=O)[C@@H](N)Cc1cnc[nH]1)[C@@H](C)O)[C@@H](C)O)C(C)C)C(=O)N[C@@H](CCC(=O)O)C(=O)N[C@@H](Cc1ccccc1)C(=O)N[C@H](C(=O)N[C@@H](C)C(=O)N[C@@H](Cc1c[nH]c2ccccc12)C(=O)N[C@@H](CC(C)C)C(=O)N[C@H](C(=O)N[C@@H](CCCNC(=N)N)C(=O)NCC(=O)N[C@@H](CCCNC(=N)N)C(=O)NCC(=O)O)C(C)C)[C@@H](C)CC)C(=O)O [Lira, liraglutide, reference compound]
Gastrointestinal adverse events, % (percentage of patients experiencing at least one event) ([1]; Lira 0.3 mg once daily s.c.): 21.9%
Gastrointestinal adverse events, E (number of events) ([1]; Lira 0.3 mg once daily s.c.): 25
Nausea, % (percentage of patients experiencing at least one event) ([1]; Lira 0.3 mg once daily s.c.): 9.4%
Nausea, E (number of events) ([1]; Lira 0.3 mg once daily s.c.): 7
Gastrointestinal adverse events, Ne (number of patients experiencing at least one event) [1, 3]: 14
Nausea, Ne (number of patients experiencing at least one event) [1, 3]: 6
Gastrointestinal adverse events, % (percentage of patients experiencing at least one event) ([1]; Lira 0.6 mg once daily s.c.): 29.7%
Gastrointestinal adverse events, E (number of events) ([1]; Lira 0.6 mg once daily s.c.): 62
Nausea, % (percentage of patients experiencing at least one event) ([1]; Lira 0.6 mg once daily s.c.): 10.9%
Nausea, E (number of events) ([1]; Lira 0.6 mg once daily s.c.): 11
Gastrointestinal adverse events, Ne (number of patients experiencing at least one event) [1, 4]: 19
Nausea, Ne (number of patients experiencing at least one event) [1, 4]: 7
Gastrointestinal adverse events, % (percentage of patients experiencing at least one event) ([1]; Lira 1.2 mg once daily s.c.): 31.3%
Gastrointestinal adverse events, E (number of events) ([1]; Lira 1.2 mg once daily s.c.): 40
Nausea, % (percentage of patients experiencing at least one event) ([1]; Lira 1.2 mg once daily s.c.): 10.9%
Nausea, E (number of events) ([1]; Lira 1.2 mg once daily s.c.): 11
Gastrointestinal adverse events, Ne (number of patients experiencing at least one event) [1, 5]: 20
Nausea, Ne (number of patients experiencing at least one event) [1, 5]: 7
Gastrointestinal adverse events, % (percentage of patients experiencing at least one event) ([1]; Lira 1.8 mg once daily s.c.): 41.5%
Gastrointestinal adverse events, E (number of events) ([1]; Lira 1.8 mg once daily s.c.): 81
Nausea, % (percentage of patients experiencing at least one event) ([1]; Lira 1.8 mg once daily s.c.): 20.0%
Nausea, E (number of events) ([1]; Lira 1.8 mg once daily s.c.): 18
Gastrointestinal adverse events, Ne (number of patients experiencing at least one event) [1, 6]: 27
Nausea, Ne (number of patients experiencing at least one event) [1, 6]: 13
Gastrointestinal adverse events, Observed data, % (percentage of subjects with at least one event) [2]: 74.8%
Nausea, % (percentage of subjects experiencing at least one event) ([2]; observed data): 44.7%
Nausea, E (number of events) ([2]; observed data): 89
Nausea, Ne (number of subjects experiencing at least one event) ([2]; observed data, N 103): 46
Gastrointestinal adverse events, Observed data, Ne (number of subjects experiencing at least one event) ([2]; N 103): 77
